Measured values as given in patent publication US20260176320A1, “MODULATORS OF G-PROTEIN COUPLED RECEPTORS” (priority 2018, published 2026).
pEC50: −log10 of the molar value. Like-named read-outs stand apart in the source and are kept apart here.

Key:
Format in all cases: cell-based
GLP-1R [1] = molecular target: T1, GLP-1R (Homo sapiens, UniProt P43220); assay: HitHunter cAMP assay (GLP-1R); details: cAMP; for Emax: read-out: (Emax) GLP-1R
Outline: (§1)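 Agonist stimulation lasts 30 min at room temperature on 10,000 cells per well, with phosphodiesterase blocked by 625 μM IBMX. Accumulated cAMP is quantified by competitive antibody luminescence after overnight development.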

GIP-R = molecular target: T2, GIP-R (Homo sapiens, UniProt P48546); assay: HitHunter cAMP assay (GIP-R); details: cAMP; for Emax: read-out: (Emax) GIP-R
T2 sequence (P48546 22-466): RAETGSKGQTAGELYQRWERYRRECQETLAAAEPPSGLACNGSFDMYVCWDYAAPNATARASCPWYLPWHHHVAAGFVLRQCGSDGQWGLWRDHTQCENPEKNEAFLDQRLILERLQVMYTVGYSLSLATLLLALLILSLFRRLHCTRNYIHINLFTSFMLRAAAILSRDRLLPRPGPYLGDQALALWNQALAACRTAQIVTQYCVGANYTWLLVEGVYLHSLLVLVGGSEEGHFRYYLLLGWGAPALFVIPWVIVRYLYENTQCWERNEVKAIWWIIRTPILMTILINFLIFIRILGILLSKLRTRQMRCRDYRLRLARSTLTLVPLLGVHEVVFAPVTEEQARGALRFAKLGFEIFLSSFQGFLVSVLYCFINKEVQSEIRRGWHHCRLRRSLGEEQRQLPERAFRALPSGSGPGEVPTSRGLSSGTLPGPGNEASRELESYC
Outline: as §1

GLP-1R [2] = molecular target: T1, GLP-1R; assay: PathHunter β-arrestin assay
Outline: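 Recruitment of β-arrestin is measured by luminescence after cells, plated overnight, receive serially diluted agonist for 90 min at 37 °C in medium with 0.2% BSA. Detection reagent then develops for 3 h at room temperature, protected from light.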

[3] = Table 3A, read-out: EC50 GLP-1R/nM
[4] = Table 3A, read-out: EC50 GIP-R/nM
[5] = PathHunter β-arrestin assay, read-out: β-arrestin activity EC50

T1 sequence (P43220 24-463): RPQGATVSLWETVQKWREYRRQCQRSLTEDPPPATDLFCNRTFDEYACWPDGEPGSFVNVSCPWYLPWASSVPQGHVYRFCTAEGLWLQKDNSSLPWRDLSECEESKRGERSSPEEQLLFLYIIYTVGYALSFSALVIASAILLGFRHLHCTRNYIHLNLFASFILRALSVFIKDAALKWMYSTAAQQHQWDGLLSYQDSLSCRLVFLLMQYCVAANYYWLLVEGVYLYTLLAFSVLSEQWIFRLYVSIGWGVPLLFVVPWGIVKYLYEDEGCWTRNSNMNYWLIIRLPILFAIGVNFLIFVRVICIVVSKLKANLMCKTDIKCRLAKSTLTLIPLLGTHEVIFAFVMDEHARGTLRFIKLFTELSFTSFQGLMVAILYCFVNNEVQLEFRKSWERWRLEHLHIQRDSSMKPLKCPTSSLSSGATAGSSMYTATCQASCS

Row | Compound | EC50 (GLP-1R [1]; EC50 GLP-1R/nM, Table 3) [nM] | EC50 (GLP-1R [1]; EC50 GLP-1R/nM, Table 3A) [nM] | Emax (GLP-1R [1]; Table 3) [%] | Emax (GLP-1R [1]; Table 3A) [%] | EC50 (GIP-R; EC50 GIP-R/nM, Table 3) [nM] | EC50 (GIP-R; EC50 GIP-R/nM, Table 3A) [nM] | Emax (GIP-R; Table 3) [%] | Emax (GIP-R; Table 3A) [%] | pEC50 (GLP-1R [2]) | EC50 (GLP-1R [1]; [3]) [nM] | EC50 (GIP-R; [4]) [nM] | pEC50 (GLP-1R [2]; [5]) | EC50 (GLP-1R [1]; Table 3, read-out: EC50 GLP-1R/nM) [nM] | EC50 (GIP-R; Table 3, read-out: EC50 GIP-R/nM) [nM] | EC50 (GIP-R; read-out: EC50 GIP-R/nM, Table 3) [nM] | EC50 (GIP-R; read-out: EC50 GIP-R/nM, Table 3A) [nM]
1 | CCCCCCCCCCCCCCCC(=O)N[C@@H](CCC(=O)NCCCC[C@H](NC(=O)[C@H](CO)NC(=O)[C@@H]1CCCN1C(=O)[C@@H]1CCCN1C(=O)[C@@H]1CCCN1C(=O)[C@H](C)NC(=O)CNC(=O)[C@H](CO)NC(=O)[C@H](CO)NC(=O)[C@@H]1CCCN1C(=O)CNC(=O)CNC(=O)[C@H](C)NC(=O)[C@H](CC(C)C)NC(=O)[C@H](CC(C)C)NC(=O)[C@H](Cc1c[nH]c2ccccc12)NC(=O)[C@H](CC(N)=O)NC(=O)[C@@H](NC(=O)[C@H](Cc1ccccc1)NC(=O)[C@H](CCC(=O)O)NC(=O)C(C)(C)NC(=O)[C@H](C)NC(=O)[C@H](C)NC(=O)[C@H](CCC(N)=O)NC(=O)[C@H](CCCCN)NC(=O)[C@H](CC(=O)O)NC(=O)[C@H](CC(C)C)NC(=O)[C@H](Cc1ccc(O)cc1)NC(=O)[C@@H](NC(=O)[C@H](CO)NC(=O)[C@H](Cc1ccc(O)cc1)NC(=O)[C@H](CC(=O)O)NC(=O)[C@H](CO)NC(=O)[C@@H](NC(=O)[C@H](Cc1ccccc1)NC(=O)[C@@H](NC(=O)CNC(=O)[C@H](CCC(=O)O)NC(=O)CSCC(=O)NCCN1CCNC(=O)C1=O)[C@@H](C)O)[C@@H](C)O)[C@@H](C)CC)C(C)C)C(N)=O)C(=O)O [Compound 24] | 0.1 to 1 | 0.1 to 1 | 92 | 92 | 1 to 10 | 100 to 1000 | 15 | 15 | < 6.00 |  |  |  |  |  |  | 
2 | CCCCCCCCCCCCCCCC(=O)N[C@@H](CCC(=O)NCCCC[C@H](NC(=O)[C@H](CO)NC(=O)[C@@H]1CCCN1C(=O)[C@@H]1CCCN1C(=O)[C@@H]1CCCN1C(=O)[C@H](C)NC(=O)CNC(=O)[C@H](CO)NC(=O)[C@H](CO)NC(=O)[C@@H]1CCCN1C(=O)CNC(=O)CNC(=O)[C@H](C)NC(=O)[C@H](CC(C)C)NC(=O)[C@H](CC(C)C)NC(=O)[C@H](Cc1c[nH]c2ccccc12)NC(=O)[C@H](CC(N)=O)NC(=O)[C@@H](NC(=O)[C@H](Cc1ccccc1)NC(=O)[C@H](CCC(=O)O)NC(=O)C(C)(C)NC(=O)[C@H](C)NC(=O)[C@H](C)NC(=O)[C@H](CCC(N)=O)NC(=O)[C@H](CCCCN)NC(=O)[C@H](CC(=O)O)NC(=O)[C@H](CC(C)C)NC(=O)[C@H](Cc1ccc(O)cc1)NC(=O)[C@@H](NC(=O)[C@H](CO)NC(=O)[C@H](Cc1ccc(O)cc1)NC(=O)[C@H](CC(=O)O)NC(=O)[C@H](CO)NC(=O)[C@@H](NC(=O)[C@H](Cc1ccccc1)NC(=O)[C@@H](NC(=O)CNC(=O)[C@H](CCC(=O)O)NC(=O)CSCC(=O)NCCN1C(=O)CC(C)(C)C1=O)[C@@H](C)O)[C@@H](C)O)[C@@H](C)CC)C(C)C)C(N)=O)C(=O)O [Compound 104] | 1 to 10 | 1 to 10 | 104 to 106 | 104 to 106 | 1 to 10 | 1 to 10 | 43 to 47 | 43 to 47 | < 6.00 |  |  |  |  |  |  | 
3 | CCCCCCCCCCCCCCCC(=O)N[C@@H](CCC(=O)NCCCC[C@H](NC(=O)[C@H](CO)NC(=O)[C@@H]1CCCN1C(=O)[C@@H]1CCCN1C(=O)[C@@H]1CCCN1C(=O)[C@H](C)NC(=O)CNC(=O)[C@H](CO)NC(=O)[C@H](CO)NC(=O)[C@@H]1CCCN1C(=O)CNC(=O)CNC(=O)[C@H](C)NC(=O)[C@H](CC(C)C)NC(=O)[C@H](CC(C)C)NC(=O)[C@H](Cc1c[nH]c2ccccc12)NC(=O)[C@H](CC(N)=O)NC(=O)[C@@H](NC(=O)[C@H](Cc1ccccc1)NC(=O)[C@H](CCC(=O)O)NC(=O)C(C)(C)NC(=O)[C@H](C)NC(=O)[C@H](C)NC(=O)[C@H](CCC(N)=O)NC(=O)[C@H](CCCCN)NC(=O)[C@H](CC(=O)O)NC(=O)[C@H](CC(C)C)NC(=O)[C@H](Cc1ccc(O)cc1)NC(=O)[C@@H](NC(=O)[C@H](CO)NC(=O)[C@H](Cc1ccc(O)cc1)NC(=O)[C@H](CC(=O)O)NC(=O)[C@H](CO)NC(=O)[C@@H](NC(=O)[C@H](Cc1ccccc1)NC(=O)[C@@H](NC(=O)CNC(=O)[C@H](CCC(=O)O)NC(=O)[C@@H](C)NC(=O)CN1CCCCC1=O)[C@@H](C)O)[C@@H](C)O)[C@@H](C)CC)C(C)C)C(N)=O)C(=O)O [Compound 213] |  |  |  | 90 |  |  |  | 59 |  | < 0.1 | 0.1 to 1 | 6.00 to 8.00 |  |  |  | 
4 | CCCCCCCCCCCCCCCC(=O)N[C@@H](CCC(=O)NCCCC[C@H](NC(=O)[C@H](CO)NC(=O)[C@@H]1CCCN1C(=O)[C@@H]1CCCN1C(=O)[C@@H]1CCCN1C(=O)[C@H](C)NC(=O)CNC(=O)[C@H](CO)NC(=O)[C@H](CO)NC(=O)[C@@H]1CCCN1C(=O)CNC(=O)CNC(=O)[C@H](C)NC(=O)[C@H](CC(C)C)NC(=O)[C@H](CC(C)C)NC(=O)[C@H](Cc1c[nH]c2ccccc12)NC(=O)[C@H](CC(N)=O)NC(=O)[C@@H](NC(=O)[C@H](Cc1ccccc1)NC(=O)[C@H](CCC(=O)O)NC(=O)C(C)(C)NC(=O)[C@H](C)NC(=O)[C@H](C)NC(=O)[C@H](CCC(N)=O)NC(=O)[C@H](CCCCN)NC(=O)[C@H](CC(=O)O)NC(=O)[C@H](CC(C)C)NC(=O)[C@H](Cc1ccc(O)cc1)NC(=O)[C@@H](NC(=O)[C@H](CO)NC(=O)[C@H](Cc1ccc(O)cc1)NC(=O)[C@H](CC(=O)O)NC(=O)[C@H](CO)NC(=O)[C@@H](NC(=O)[C@H](Cc1ccccc1)NC(=O)[C@@H](NC(=O)CNC(=O)[C@H](CCC(=O)O)NC(=O)CSCC(=O)NCCn1cccc(C)c1=O)[C@@H](C)O)[C@@H](C)O)[C@@H](C)CC)C(C)C)C(N)=O)C(=O)O [Compound 232] |  | 0.1 to 1 |  | 95 |  | 1 to 10 |  | 78 | < 6.00 |  |  |  |  |  |  | 
5 | CC[C@H](C)[C@H](NC(=O)[C@H](CO)NC(=O)[C@H](Cc1ccc(O)cc1)NC(=O)[C@H](CC(=O)O)NC(=O)[C@H](CO)NC(=O)[C@@H](NC(=O)[C@H](Cc1ccccc1)NC(=O)[C@@H](NC(=O)CNC(=O)[C@H](CCC(=O)O)NC(=O)CSCC(=O)NCCN1C(=O)c2cccc3cccc(c23)C1=O)[C@@H](C)O)[C@@H](C)O)C(=O)N[C@@H](Cc1ccc(O)cc1)C(=O)N[C@@H](CC(C)C)C(=O)N[C@@H](CC(=O)O)C(=O)N[C@@H](CCCCN)C(=O)N[C@@H](CCC(N)=O)C(=O)N[C@@H](C)C(=O)N[C@@H](C)C(=O)NC(C)(C)C(=O)N[C@@H](CCC(=O)O)C(=O)N[C@@H](Cc1ccccc1)C(=O)N[C@H](C(=O)N[C@@H](CC(N)=O)C(=O)N[C@@H](Cc1c[nH]c2ccccc12)C(=O)N[C@@H](CC(C)C)C(=O)N[C@@H](CC(C)C)C(=O)N[C@@H](C)C(=O)NCC(=O)NCC(=O)N1CCC[C@H]1C(=O)N[C@@H](CO)C(=O)N[C@@H](CO)C(=O)NCC(=O)N[C@@H](C)C(=O)N1CCC[C@H]1C(=O)N1CCC[C@H]1C(=O)N1CCC[C@H]1C(=O)N[C@@H](CO)C(=O)N[C@@H](CCCCN)C(N)=O)C(C)C [Compound 158] |  |  | 31 to 38 | 31 to 38 |  |  | 104 to 107 | 104 to 107 |  | 10 to 100 | 0.1 to 1 | < 6.00 | 10 to 100 | 0.1 to 1 |  | 
6 | CC[C@H](C)[C@H](NC(=O)[C@H](CO)NC(=O)[C@H](Cc1ccc(O)cc1)NC(=O)[C@H](CC(=O)O)NC(=O)[C@H](CO)NC(=O)[C@@H](NC(=O)[C@H](Cc1ccccc1)NC(=O)[C@@H](NC(=O)CNC(=O)[C@H](CCC(=O)O)NC(=O)CC(=O)NCCCN1C(=O)CSC1=O)[C@@H](C)O)[C@@H](C)O)C(=O)N[C@@H](Cc1ccc(O)cc1)C(=O)N[C@@H](CC(C)C)C(=O)N[C@@H](CC(=O)O)C(=O)N[C@@H](CCCCN)C(=O)N[C@@H](CCC(N)=O)C(=O)N[C@@H](C)C(=O)N[C@@H](C)C(=O)NC(C)(C)C(=O)N[C@@H](CCC(=O)O)C(=O)N[C@@H](Cc1ccccc1)C(=O)N[C@H](C(=O)N[C@@H](CC(N)=O)C(=O)N[C@@H](Cc1c[nH]c2ccccc12)C(=O)N[C@@H](CC(C)C)C(=O)N[C@@H](CC(C)C)C(=O)N[C@@H](C)C(=O)NCC(=O)NCC(=O)N1CCC[C@H]1C(=O)N[C@@H](CO)C(=O)N[C@@H](CO)C(=O)NCC(=O)N[C@@H](C)C(=O)N1CCC[C@H]1C(=O)N1CCC[C@H]1C(=O)N1CCC[C@H]1C(=O)N[C@@H](CO)C(=O)N[C@@H](CCCCN)C(N)=O)C(C)C [Compound 166] | < 0.1 | < 0.1 | 109 | 109 |  |  | 77 to 84 | 77 to 84 | < 6.00 |  |  |  |  |  | 1 to 100 | 1 to 100
